Source: patent publication US9464045B2, “Process for the preparation of methionine” (EVONIK DEGUSSA GmbH, priority 2012, dated 2016)

Test: Recrystallization of methionine in the presence of additives (procedure of Example 1): amount of foam and bulk density
Type: physicochemical
Conditions: bulk density of dried methionine; additive concentration 400 ppm
Experimental: 60 g of methionine, 305 g of water and 35 g of crude methionine filtrate were introduced into a flask and circulated via a heat exchanger by pumping at a temperature of 40° C. As a result of the potassium carbonate present in the crude methionine filtrate, the potassium ion concentration was ca. 7 g/kg. A solution, heated to 90° C., of 150 g of methionine in 990.5 ml of water and 109.5 g of crude methionine filtrate was added to this suspension at a rate of 18 ml/min, during which the temperature of the initial charge of suspension was kept at 40° C. After adding 650 ml of the hot solution, 500 ml of suspension were removed and then a further 500 ml of the hot solution were metered in at a rate of 18 ml/min. The resulting suspension was discharged, the amount of foam was determined, and the methionine was filtered off and washed with 300 ml of acetone. After drying the methionine, the bulk density was determined.
The recrystallization experiments were carried out in the presence of the following additives, the stated concentration being established by adding the additive to both starting solutions/suspensions. The concentration data give the total active ingredient content of the additive without water based on the total mass of the solution or suspension. Additive 1 was an aqueous mixture of antifoam and crystallization additive according to EP […] […]

“polyethoxylated (20 EO) sorbitan tristearate [Additive 24]” gave a Bulk density of 616 g/L.
